Assay results reported in US20210121482A1, “WITHANOLIDES FOR THE TREATMENT OF CACHEXIA” (University of Louisville Research Foundation, Inc., priority 2019, published 2021).

Key:
[1] = test system: gonadal fat pad; test: Qualitative assessment of gonadal fat; format: in vivo, mice
Text: Ovarian cancer progression is often associated with the specific loss of the gonadal fat pad. Thus, an attempt was made to quantify the amount of adipose tissue present in the gonadal region at the time of tissue collection post-euthanization. The severe reduction in the gonadal fat pad rendered accurate measurement of gonadal adipose tissue improbable. Further, in some mice, there was a complete absence of gonadal fat.
1. When the ovaries were embedded in adipose tissue and not readily identifiable without dissection through the fat pad, the mouse was scored “Abundant”. All mice in the control group were deemed to have an abundant amount of gonadal fat, whereas the vehicle treated group had no gonadal fat present, consistent with published reports linking specific changes in the gonadal fat pad to the progression of ovarian cancer.
2. When adipose tissue was present but in such a scant quantity that we could not accurately quantify the mass, the amount of gonadal fat was marked as “Small Amount”.

[2] = Change in tumor-free body weight (Example 3); format: in vivo, mice; conditions: tumor-bearing, 2 and 4 mg/kg, vs tumor-bearing vehicle
Text: Experimental tumors were induced as described in Example 2.
No significant difference in tumor weight between the two doses of WFA was observed (p=0.65).

[3] = Body and organ weight, A2780 xenograft mice (Example 1); conditions: for BW Week 2 / BW Week 3 / BW Week 1 / Initial BW / Kidney weight normalized / Liver weight normalized / Spleen weight normalized: tumor-bearing; for Initial BW: baseline, before treatment
[4] = test system: phospho-p65 (NF-κB); test: Western blot and IHC of p65 in tumor samples; format: in vivo, mice; conditions: 2 and 6 mg/kg
Description: Immunohistochemistry of Tumor Tissue: For the detection of various proteins, 10 μm thick sections were made from the midsection of tumor samples. A hydrophobic boundary was drawn around the sections and then they were fixed in 3.7% formaldehyde solution for 10 minutes. The slides were washed three times with 1×PBS for 5 minutes each. The sections were then blocked in 2% BSA in PBS for 30 minutes. The sections were then incubated with primary antibodies (1:100 dilution) overnight in a humidity chamber at 4° C. The sections were then washed three times with 1×PBS for 5 minutes. The slides were incubated in appropriate secondary antibodies (1:2000 dilution) for 45-60 minutes. Sections were counterstained with DAPI (1:2500 dilution) for 5 minutes to visualize nuclei. Slides were then washed twice in 1×PBS for 5 minutes, and then mounted for visualization. Nonspecific background staining was determined by performing the above protocol with omitting the inclusion of the primary antibodies. Refer to Table 2 for a complete list of antibodies utilized.
Protein Extraction and Western Blotting: Tumor samples were homogenized in chilled RIPA buffer (Sigma) supplemented with a Complete Mini Protease Inhibitor tablet (Roche Molecular Biochemicals, Indianapolis, Ind.). Tissue lysates were centrifuged at 10,000 RPM and the supernatants were collected. Protein concentration for each sample was determined using the Bradford reagent method (Bio-Rad), according to manufacturer's instructions. Protein lysates ([…]) were separated on 10% SDS-PAGE gels at 100 volts for 2 h. The proteins were transferred to nitrocellulose membranes at 100 volts for 90 minutes. The membranes were blocked with 5% non-fat milk in Tris-buffered saline supplemented with Tween®20 (0.5%; TBS-T) for 30-60 minutes. The membranes were then washed 3 times with TBS-T for 5 minutes. The membranes were then incubated with primary antibody at 4° C. overnight. […]

[5] = test system: Pax7, Myod1, UPR, UPS and ALS markers in GA muscle; test: qPCR of GA muscle (Pax7, Myod1, UPR, UPS, ALS markers); format: in vivo, Mus musculus
Description: (§1) Total RNA Extraction and qPCR: Isolation of total RNA from xenografted tumor samples was performed using an RNeasy® Mini Kit (Qiagen Catalog #74104) according to the manufacturer's instructions. Isolation of total RNA from skeletal muscle was performed using an RNeasy® Fibrous Tissue Mini Kit (Qiagen Catalog #74704) according to the manufacturer's instructions. First strand cDNA was synthesized using 1 μg of purified RNA and a commercially available kit (iScript™ cDNA synthesis, Bio-Rad Catalog #170-8891), Quantification of mRNA expression was performed similar to as previously described (Hindi and Kumar, 2016) using the SYBR Green dye method on a StepOnePlus™ system (Applied Biosystems) using gene-specific primers, as shown in Table 1.
Total RNA Extraction and qPCR: as in Example 1.

[6] = test system: inflammatory cytokines and NLRP3 inflammasome markers in tumor samples; test: qPCR of xenografted tumor samples; format: in vivo, Homo sapiens
Description: as §1

[7] = WFA 2 mg/kg IP every three days
[8] = WFA 6 mg/kg IP every three days
[9] = tumor-bearing, 2 mg/kg, vs tumor-bearing vehicle
[10] = tumor-bearing, 4 mg/kg, vs tumor-bearing vehicle
[11] = tumor-bearing, 2 and 4 mg/kg, vs tumor-bearing vehicle
[12] = tumor-free, 4 mg/kg, vs tumor-free vehicle
[13] = tumor-free, WFA-treated groups vs vehicle-treated
[14] = 2 and 6 mg/kg, vs vehicle treated group

Question: Which results are given for `CC1=C(CO)C(=O)O[C@@H]([C@@H](C)[C@H]2CC[C@H]3[C@@H]4C[C@H]5O[C@]56[C@@H](O)C=CC(=O)[C@]6(C)[C@H]4CC[C@]23C)C1` [WFA, (4β,5β,6β,22R)-4,27-Dihydroxy-5,6:22,26-diepoxyergosta-2,24-diene-1,26-dione]?
Answer: Gonadal Fat: Absent (mice scored/group) ([1]; WFA 2 mg/kg): 0; Gonadal Fat: Abundant (mice scored/group) ([1]; WFA 2 mg/kg): 0; Gonadal Fat: Present (mice scored/group) ([1]; WFA 2 mg/kg): 4/5; Gonadal Fat: Small Amount (mice scored/group) ([1]; WFA 2 mg/kg): 1/5; Gonadal Fat: Absent (mice scored/group) ([1]; WFA 6 mg/kg): 0; Gonadal Fat: Abundant (mice scored/group) ([1]; WFA 6 mg/kg): 0; Gonadal Fat: Present (mice scored/group) ([1]; WFA 6 mg/kg): 1/4; Gonadal Fat: Small Amount (mice scored/group) ([1]; WFA 6 mg/kg): 3/4; absolute change in tumor-free body weight [2]: significant preservation of body weight loss; body weight fold change ([3]; 2 and 6 mg/kg, at termination of study, all groups compared): No statistically significant difference between the groups; BW Week 2 [3, 7]: 20.43 ± 2.43 g; BW Week 3 [3, 7]: 22.68 ± 2.53 g; BW Week 1 ([3]; WFA 2 mg/kg group): 19.98 ± 2.33 g; Initial BW ([3]; WFA 2 mg/kg group): 19.14 ± 1.50 g; Kidney weight normalized ([3]; WFA 2 mg/kg): 4.95 ± 0.79 mg/g; Liver weight normalized ([3]; WFA 2 mg/kg): 47.16 ± 15.88 mg/g; Spleen weight normalized ([3]; WFA 2 mg/kg): 2.20 ± 1.74 mg/g; BW Week 2 [3, 8]: 21.37 ± 1.32 g; BW Week 3 [3, 8]: 23.57 ± 1.23 g; BW Week 1 ([3]; WFA 6 mg/kg group): 20.70 ± 1.35 g; Initial BW ([3]; WFA 6 mg/kg group): 19.60 ± 0.76 g; Kidney weight normalized ([3]; WFA 6 mg/kg): 5.45 ± 0.49 mg/g; Liver weight normalized ([3]; WFA 6 mg/kg): 41.18 ± 3.60 mg/g; Spleen weight normalized ([3]; WFA 6 mg/kg): 2.78 ± 1.45 mg/g; phospho-p65 co-localized with DAPI (nuclear translocation) [4]: impairment in the translocation of p65 to the nucleus; phospho-p65 staining in tumor cells (IHC) ([4]; vs vehicle treated group): severely diminished; protein levels of phospho- and total p65 in tumor (immunoblot) ([4]; vs vehicle treated group): robust decrease in the protein levels of phospho- and total p65; relative transcript levels of Ddit3 in GA muscle [5, 9]: upregulation of relative transcript levels of Ddit3; relative transcript levels of Ern1 in GA muscle [5, 9]: no significant difference in relative transcript levels of Ern1; transcript levels of Eif2ak3, Atf4, Pppr1r15a, Hspa5, Hsp90B1, Tnfrsf10B in GA muscle [5, 9]: reduction in Eif2ak3, Atf4, Pppr1r15a, Hspa5, Hsp90B1, and Tnfrsf10B; relative transcript levels of Ddit3 and Ern1 in GA muscle [5, 10]: significant increase in relative transcript levels of Ddit3 and Ern1; transcript levels of Eif2ak3, Atf4, Pppr1r15a, Hspa5, Hsp90B1, Tnfrsf10B in GA muscle [5, 10]: decrease in relative transcript levels of Eif2ak3, Atf4, Pppr1r15a, Hspa5, Hsp90B1, and Tnfrsf10B; relative mRNA expression of Sqstm1, Map1lc3b, Becn1 [5, 11]: significant dose-dependent reduction in relative mRNA expression of the select ALS markers; transcription of Fbxo30, Fbxo32, Trim63, Traf6 [5, 11]: statistically significant dose-dependent transcriptional downregulation of Fbxo30, Fbxo32, Trim63, and Traf6; relative transcript levels of Pax7 and Myod1 in GA muscle ([5]; tumor-free and tumor-bearing WFA-treated groups): significant increases in both Pax7 and Myod1; relative transcriptional expression of Fbxo30 and Traf6 ([5]; tumor-free, 2 mg/kg, vs vehicle-treated): significant reduction in the relative transcriptional expression of Fbxo30 and Traf6; relative gene expression of Fbxo30, Fbxo32, Trim63, Traf6 [5, 12]: significant reduction in relative gene expression of Fbxo30, Fbxo32, Trim63, and Traf6; relative gene expression of Sqstm1, Map1lc3b, Becn1 [5, 12]: significant reduction in relative gene expression; transcript levels of Atf4 and Tnfrsf10B in GA muscle [5, 13]: no change in transcript levels of Atf4 and Tnfrsf10B; transcript levels of Eif2ak3, Ddit3, Pppr1r15a, Ern1 in GA muscle [5, 13]: transcriptional upregulation of Eif2ak3, Ddit3, Pppr1r15a, and Ern1; transcript levels of Hspa5 and Hsp90B1 in GA muscle [5, 13]: downregulation of Hspa5 and Hsp90B1; relative transcript levels of TNFα, IFNγ, IL-6, IL-8 in tumor ([6]; 2 mg/kg, vs vehicle treated group): significantly reduced; relative transcript levels of HO-1 in tumor ([6]; 2 mg/kg, vs vehicle treated group (p=0.06)): trended towards an increase; relative gene expression of IL-18 in tumor ([6]; 2 mg/kg, vs vehicle treated group (p=0.07)): trend towards reduction; relative mRNA expression of TNFα in tumor ([6]; 6 mg/kg, vs vehicle treated group): significantly reduced; relative transcript levels of HO-1 in tumor ([6]; 6 mg/kg, vs vehicle treated group (p=0.03)): significantly increased; relative expression of IL-6 and IL-8 genes in tumor ([6]; 6 mg/kg, vs vehicle treated group (p=0.07, p=0.09)): trend towards reduction; relative gene expression of IL-18 in tumor ([6]; 6 mg/kg, vs vehicle treated group (p=0.21)): did not approach the level of statistical significance; reduction in NLRP3 mRNA levels in tumor [6, 14]: not found to be significant; relative transcript levels of CASP1 in tumor [6, 14]: dose-dependent decrease; relative transcript levels of IL-1β in tumor [6, 14]: significantly reduced in both WFA treated groups
